Results: US12213483B1, “Herbicidal compositions comprising trifludimoxazin” (BASF SE, priority 2024, dated 2025)
“And” between values parts separate entries of the source, which are not always exact repeats. Equal entries are not always repeated.

Experiments:
Format in all cases: in vivo
[1] = tested on: Abutilon theophrasti (ABUTH); assay: Post-emergence application in greenhouse trials, ABUTH
Experimental: (§1) In the examples below, using the method of S. R. Colby (1967) “Calculating synergistic and antagonistic responses of herbicide combinations”, Weeds 15, p. 22ff., the value E, which is expected if the activity of the individual active compounds is only additive, was calculated: E=X+Y−(X·Y/100) • where • X=percent activity using active herbicide A at an application rate a; • Y=percent activity using active trifludimoxazin at an application rate b; • E=expected activity (in %) by A+B at application rates a+b.
(§2) If the value found experimentally is higher than the value E calculated according to Colby, a synergistic effect is present.
(§3) The culture containers used were plastic pots containing loamy sand with approximately 3.0% of humus as substrate. The seeds of the test plants were sown separately for each species.
(§4) For the post-emergence treatment, the test plants were grown to a plant height of from 3 to 15 cm, depending on the plant habit, and only then treated with the active compounds which had been suspended or emulsified in water. To this end, the test plants were either sown directly, and grown in the same containers, or they were first grown separately as seedlings and transplanted into the test containers a few days prior to treatment.
(§5) Depending on the species, the plants were kept at 10-25° C. and 20-35° C., respectively.
(§6) The test period extended over 2 to 4 weeks. During this time, the plants were tended and their response to the individual treatments was evaluated.
(§7) Evaluation was carried out using a scale from 0 to 100. 100 means no emergence of the plants, or complete destruction of at least the above-ground parts, and 0 means no damage or normal course of growth. A good herbicidal activity is given at values of at least 70, and very good herbicidal activity is given at values of at least 85.
(§8) In the greenhouse trials, unless indicated otherwise, herbicide A, trifludimoxazin and saflufenacil were formulated (50 g/I) and applied with addition of 1% MSO (methylated seed oil) as adjuvant. The solvent used was water (200 I/ha).

[2] = tested on: Avena fatua (AVEFA); assay: Post-emergence application in greenhouse trials, AVEFA; settings: 20 DAT; growth stage 13; 0.3 g ai/ha
Experimental: as §1, §2, §3, §4, §5, §6, §7, §8

[3] = tested on: Digitaria sanguinales (DIGSA); assay: Post-emergence application in greenhouse trials, DIGSA; settings: 7 DAT; GS 12; C-1 0.3 g ai/ha
Experimental: as §1, §2, §3, §4, §5, §6, §7, §8

[4] = tested on: Setaria viridis (SETVI); assay: Post-emergence application in greenhouse trials, SETVI
Experimental: as §1, §2, §3, §4, §5, §6, §7, §8

[5] = tested on: Avena fatua (AVEFA); assay: Post-emergence application in field trials, AVEFA; settings: 29 DAT; water volume 100 l/ha; pre plant burndown; growth stage 14-23; height 24-40 cm; 18 g ai/ha
Experimental: as §1, §2
(§9) On field test sites, natural weed infestation or seeded weeds were treated post-emergence of the weeds.
(§10) In the field trials, the weedy plants were treated as indicated below.
(§11) Herbicide A-1 (342 g/I), trifludimoxazin (500 g/I) and saflufenacil (342 g/I) were, together with addition of 1% MSO (methylated seed oil) as adjuvant (unless indicated otherwise), formulated in water as distribution medium as indicated and sprayed with commercial flat fan nozzles.
(§12) In the following experiments, the herbicidal activity for the individual herbicidal compositions (solo and mixture applications) was assessed at the indicated days after treatment (DAT). The assessments for the damage on undesired weeds caused by the composition was carried out using a scale from 0 to 100%, compared to the untreated control plants. Here, 0 means no damage and 100 means complete destruction of the plants.
(§13) Herbicide A-1 (100 g/l) and trifludimoxazin (500 g/l) were, together with addition of 1% MSO (methylated seed oil) as adjuvant (unless indicated otherwise), formulated in water as distribution medium as indicated and sprayed with commercial flat fan nozzles.

[6] = tested on: Commelina benghalensis (COMBE); assay: Post-emergence application in greenhouse trials, COMBE; settings: 20 DAT; growth stage 21; 0.9 g ai/ha
Experimental: as §1, §2, §3, §4, §5, §6, §7, §8

[7] = tested on: Kochia scoparia (KCHSC); assay: Post-emergence application in greenhouse trials, KCHSC
Experimental: as §1, §2, §3, §4, §5, §6, §7, §8

[8] = tested on: Lolium multiflorum (LOLMU); assay: Post-emergence application in greenhouse trials, LOLMU; settings: 20 DAT; growth stage 13; 0.3 g ai/ha
Experimental: as §1, §2, §3, §4, §5, §6, §7, §8

[9] = tested on: Hordeum vulgare (HORVS); assay: Post-emergence application in field trials, HORVS; settings: 29 DAT; water volume 100 l/ha; pre plant burndown; growth stage 15-24; height 25-45 cm; 18 g ai/ha
Experimental: as §1, §2, §9, §10, §11, §12, §13

[10] = tested on: Sorghum halapense (SORHA); assay: Post-emergence application in greenhouse trials, SORHA; settings: 20 DAT; growth stage 14; 0.9 g ai/ha
Experimental: as §1, §2, §3, §4, §5, §6, §7, §8

## CC(C)N(C)S(=O)(=O)NC(=O)c1cc(-n2c(=O)cc(C(F)(F)F)n(C)c2=O)c(F)cc1Cl [C-1, saflufenacil]
[1]; 6 DAT, GS 33, C-1 1.1 g ai/ha
  % Herbicidal activity: 45%
[1]; 20 DAT, growth stage 33, 1.1 g ai/ha
  % Herbicidal activity: 0%
[2]
  % Herbicidal activity: 0%
[3]
  % Herbicidal activity: 10% and 15%
[4]; 7 DAT, GS 14, C-1 0.9 g ai/ha
  % Herbicidal activity: 35%
[4]; 20 DAT, growth stage 14, 0.9 g ai/ha
  % Herbicidal activity: 35%
[5]
  % Herbicidal activity: 0%
[6]
  % Herbicidal activity: 80%
[7]; 6 DAT, GS 33, C-1 0.5 g ai/ha
  % Herbicidal activity: 60%
[7]; 20 DAT, growth stage 33, 0.5 g ai/ha
  % Herbicidal activity: 40%
[7]; 20 DAT, growth stage 33, 0.9 g ai/ha
  % Herbicidal activity: 60%
[8]
  % Herbicidal activity: 0%
[9]
  % Herbicidal activity: 0%
[10]
  % Herbicidal activity: 0%
